Assay results from DBAASP.
In brackets after ≈: the same amount, converted by molar mass. Each block holds one compound with its values, some of them ahead of it.

How the values were obtained:
Assay in all cases: ≥ marks a high value that may be exact or a test limit, other limits are often not marked, values filed in µg/mL are converted to µM
[1] = test system: Staphylococcus aureus ATCC 25923
[2] = test system: Staphylococcus aureus CIB 85462
[3] = test system: Candida albicans CIB 45437
[4] = test system: Escherichia coli CIB 84492
[5] = test system: Escherichia coli ATCC 25922
[6] = test system: Klebsiella pneumoniae ATCC 700603
[7] = test system: Escherichia coli ATCC 25726
[8] = test system: Acinetobacter baumannii I NM8
[9] = test system: Bacillus subtilis ATCC 6633
[10] = test system: Candida albicans ATCC 20032
[11] = test system: Batrachochytrium dendrobatidis JEL-197
[12] = test system: Stenotrophomonas maltophilia CUN 3998-00
[13] = test system: Staphylococcus aureus ATCC 43300
[14] = test system: Pseudomonas aeruginosa ATCC 27853
[15] = test system: Acinetobacter baumannii ATCC 19606
[16] = test system: Pseudomonas aeruginosa CUN 4158-02
[17] = test system: Bordetella bronchiseptica CUN 11844-99
[18] = test system: Staphylococcus aureus CUN 3792-99
[19] = test system: Acinetobacter baumannii NM35
[20] = test system: Candida albicans ATCC 90028
[21] = test system: Acinetobacter baumannii NM8
[22] = test system: Stenotrophomonas maltophilia B32/4
[23] = test system: Staphylococcus epidermidis RP62A
[24] = test system: Staphylococcus epidermidis RP62A/1
[25] = test system: Bacillus subtilis var. niger ATCC 9372
Escherichia coli K91BK = test system: Escherichia coli K91BK
[26] = test system: Bacillus anthracis Sterne 34F2

MIC [1]: 6.25 µM (≈ 16 µg/mL)
MIC [2]: 12.5 µM (≈ 32 µg/mL)
MIC [3]: ≥ 50 µM
MIC [4]: 25 µM (≈ 64 µg/mL)
MIC [5]: 50 µM (≈ 128 µg/mL)
SMILES: CC[C@H](C)[C@@H]1NC(=O)[C@H](C)NC(=O)[C@@H](NC(=O)[C@H](Cc2ccccc2)NC(=O)[C@@H](NC(=O)[C@@H](NC(=O)[C@@H]2CCCN2C(=O)[C@H](CC(C)C)NC(=O)[C@@H](NC(=O)[C@H](CC(N)=O)NC(=O)[C@H](C)NC(=O)[C@H](C)NC(=O)[C@@H](NC(=O)[C@H](CCCN=C(N)N)NC(=O)[C@@H](NC(=O)[C@@H](NC(=O)[C@H](C)NC(=O)[C@@H]2CCCN2C(=O)[C@H](CC(C)C)NC(=O)[C@@H](N)Cc2ccccc2)C(C)C)[C@@H](C)CC)C(C)C)C(C)C)[C@@H](C)O)C(C)C)CSSC[C@@H](C(=O)O)NC(=O)[C@H](CCCCN)NC(=O)[C@H](CCCCN)NC(=O)[C@H](CO)NC1=O [FLPAVIRVAANVLPTVFCAISKKC]

MIC [1]: > 100 µM
MIC [6]: > 50 µM
MIC [7]: ≥ 50 µM
MIC [8]: 12.5 µM (≈ 33.1 µg/mL)
SMILES: CC(C)C[C@H](NC(=O)CNC(=O)CNC(=O)[C@H](CCCCN)NC(=O)[C@H](C)NC(=O)[C@H](Cc1ccccc1)NC(=O)[C@H](CCCCN)NC(=O)[C@H](CCCCN)NC(=O)[C@H](CC(C)C)NC(=O)CNC(=O)[C@H](CCC(=O)O)NC(=O)[C@H](CC(C)C)NC(=O)[C@H](C)NC(=O)[C@H](CO)NC(=O)[C@H](CO)NC(=O)[C@H](Cc1c[nH]c2ccccc12)NC(=O)[C@H](Cc1ccccc1)NC(=O)CN)C(=O)N[C@@H](CCC(=O)O)C(=O)N[C@@H](C)C(=O)N[C@@H](CC(C)C)C(=O)N[C@H](C(=O)N[C@@H](CC(N)=O)C(=O)N1CCC[C@H]1C(=O)N[C@@H](CCCCN)C(=O)O)[C@@H](C)O [GFWSSALEGLKKFAKGGLEALTNPK]

MIC [9]: 27.4 µM (≈ 75 µg/mL)
MIC [1]: 1.72 µM (≈ 4.7 µg/mL)
MIC [5]: 3.43 µM (≈ 9.4 µg/mL)
MIC [10]: 27.4 µM (≈ 75 µg/mL)
SMILES: CC[C@H](C)[C@H](NC(=O)CN)C(=O)NCC(=O)N[C@H](C(=O)N[C@@H](CCCCN)C(=O)N[C@@H](Cc1ccccc1)C(=O)N[C@@H](CC(C)C)C(=O)NCC(=O)NCC(=O)N[C@H](C(=O)N[C@@H](CCCCN)C(=O)N[C@H](C(=O)N[C@@H](C)C(=O)N[C@@H](CC(C)C)C(=O)N[C@@H](CCCCN)C(=O)NCC(=O)N[C@@H](C)C(=O)N[C@@H](CC(C)C)C(=O)N[C@@H](CCCCN)C(=O)N[C@@H](CCC(=O)O)C(=O)N[C@@H](CC(C)C)C(=O)N[C@@H](C)C(=O)N[C@@H](CO)C(=O)N[C@H](C(=O)N[C@@H](Cc1ccc(O)cc1)C(=O)N[C@H](C(=O)N[C@@H](CC(N)=O)C(N)=O)C(C)C)[C@@H](C)O)[C@@H](C)O)C(C)C)[C@@H](C)O [GIGTKFLGGVKTALKGALKELASTYVN]

MIC [11]: ≥ 50 µM
MIC [1]: 100 µM (≈ 339 µg/mL)
MIC [7]: ≥ 50 µM
SMILES: CC[C@H](C)[C@H](NC(=O)CN)C(=O)N[C@@H](CC(C)C)C(=O)N[C@@H](CC(=O)O)C(=O)N[C@H](C(=O)N[C@@H](Cc1ccccc1)C(=O)N[C@@H](CCCCN)C(=O)NCC(=O)N[C@H](C(=O)N[C@@H](C)C(=O)N[C@@H](CCCCN)C(=O)NCC(=O)N[C@H](C(=O)N[C@@H](C)C(=O)N[C@@H](CCCCN)C(=O)N[C@@H](CC(=O)O)C(=O)N[C@@H](CC(C)C)C(=O)N[C@@H](C)C(=O)N[C@H](C(=O)N[C@@H](Cc1cnc[nH]1)C(=O)N[C@@H](CCSC)C(=O)N[C@@H](CC(C)C)C(=O)N[C@@H](CCC(=O)O)C(=O)N[C@@H](CC(N)=O)C(=O)N[C@@H](CC(C)C)C(=O)N[C@@H](CCCCN)C(=O)N[C@H]1CSSC[C@@H](C(=O)O)NC(=O)CNC(=O)[C@H]([C@@H](C)O)NC(=O)[C@H](CCSC)NC(=O)[C@H](CCCCN)NC1=O)C(C)C)C(C)C)C(C)C)[C@@H](C)O [GILDTFKGVAKGVAKDLAVHMLENLKCKMTGC]

MIC [12]: 24.3 µM (≈ 64 µg/mL)
MIC [13]: 6.06 µM (≈ 16 µg/mL)
MIC [1]: 388 µM (≈ 1020 µg/mL)
MIC [14]: 3.03 µM (≈ 8 µg/mL)
MIC [15]: 6.06 µM (≈ 16 µg/mL)
MIC [16]: 12.1 µM (≈ 32 µg/mL)
MIC [5]: 388 µM (≈ 1020 µg/mL)
MIC [17]: 3.03 µM (≈ 8 µg/mL)
MIC [18]: 6.06 µM (≈ 16 µg/mL)
SMILES: NCCCC[C@H](NC(=O)CNC(=O)[C@H](CCCCN)NC(=O)[C@H](Cc1ccccc1)NC(=O)[C@H](CCCCN)NC(=O)[C@H](Cc1c[nH]c2ccccc12)NC(=O)[C@H](Cc1ccccc1)NC(=O)[C@H](CCCN=C(N)N)NC(=O)[C@H](CCCN=C(N)N)NC(=O)[C@H](Cc1ccc(O)cc1)NC(=O)[C@H](CCCCN)NC(=O)[C@H](CCCCN)NC(=O)CN)C(=O)N[C@@H](Cc1c[nH]c2ccccc12)C(=O)N[C@@H](Cc1ccccc1)C(=O)N[C@@H](Cc1c[nH]c2ccccc12)C(=O)N[C@@H](Cc1ccccc1)C(=O)N[C@@H](Cc1c[nH]c2ccccc12)C(=O)NCC(N)=O [GKKYRRFWKFKGKWFWFWG]

MIC [1]: > 250 µM
MIC [19]: 20 µM (≈ 45.9 µg/mL)
MIC [7]: 10 µM (≈ 22.9 µg/mL)
MIC [20]: ≥ 40 µM
MIC [21]: 10 µM (≈ 22.9 µg/mL)
SMILES: CC[C@H](C)[C@H](NC(=O)CNC(=O)[C@H](CCCCN)NC(=O)[C@H](CCCCN)NC(=O)[C@H](CC(C)C)NC(=O)[C@H](CO)NC(=O)CNC(=O)[C@H](CC(C)C)NC(=O)CNC(=O)[C@H](C)NC(=O)[C@H](CCCCN)NC(=O)[C@H](Cc1ccccc1)NC(=O)[C@@H](NC(=O)[C@H](CCCCN)NC(=O)[C@H](CCCCN)NC(=O)[C@H](CC(C)C)NC(=O)CN)[C@@H](C)CC)C(=O)N[C@@H](C)C(=O)N[C@@H](C)C(=O)N[C@@H](Cc1cnc[nH]1)C(=O)N[C@H](C(=O)N[C@@H](C)C(=O)N[C@@H](CO)C(N)=O)C(C)C [GLKKIFKAGLGSLKKGIAAHVAS]

MIC [1]: 8 µM (≈ 13 µg/mL)
MIC [6]: 64 µM (≈ 104 µg/mL)
MIC [14]: 64 µM (≈ 104 µg/mL)
MIC [22]: ≥ 64 µM
MIC [7]: ≥ 64 µM
MIC [23]: 4 µM (≈ 6.5 µg/mL)
MIC [24]: 4 µM (≈ 6.5 µg/mL)
MIC [20]: ≥ 128 µM
MIC [21]: ≥ 64 µM
SMILES: CC[C@H](C)[C@H](N)C(=O)N[C@@H](CC(C)C)C(=O)NCC(=O)N[C@@H](CCCCN)C(=O)N[C@@H](CC(C)C)C(=O)N[C@@H](CC(C)C)C(=O)N[C@@H](CCCCN)C(=O)N[C@H](C(=O)N[C@@H](C)C(=O)N[C@@H](C)C(=O)NCC(=O)N[C@@H](CC(C)C)C(=O)N[C@@H](CC(C)C)C(=O)N[C@@H](CO)C(=O)N[C@@H](CC(N)=O)C(=O)N[C@@H](CC(C)C)C(N)=O)[C@@H](C)O [ILGKLLKTAAGLLSNL]

SMILES: CC(=O)N[C@@H](CCCN=C(N)N)C(=O)N[C@@H](CCCN=C(N)N)C(=O)N[C@@H](CCCN=C(N)N)C(=O)N[C@@H](C)C(=O)N[C@@H](C)C(=O)N[C@@H](Cc1ccccc1)C(=O)N[C@@H](C)C(=O)N[C@@H](C)C(=O)N[C@@H](Cc1c[nH]c2ccccc12)C(=O)N[C@@H](C)C(=O)N[C@@H](C)C(=O)N[C@@H](Cc1ccccc1)C(=O)N[C@@H](C)C(=O)N[C@@H](C)C(=O)N[C@@H](CCCN=C(N)N)C(=O)N[C@@H](CCCN=C(N)N)C(=O)N[C@@H](CCCN=C(N)N)C(N)=O [RRRAAFAAWAAFAARRR]
MIC [25]: ≥ 50 µM
MIC (Escherichia coli K91BK): ≥ 100 µM
MIC [26]: ≥ 100 µM
